Laboratory results published in patent publication US9206198B2, “Inhibitors of the renal outer medullary potassium channel” (Merck Sharp & Dohme Corp., priority 2012, dated 2015).

Target: hROMK (hKir1.1) (Homo sapiens (Human), UniProt P48048)
Assay: Thallium Flux Assay (ROMK channel functional thallium flux assay, FLIPR-Tetra)
Assay type: cell-based
Details: HEK293 cells stably expressing hROMK
Procedure: Cell Culture Conditions— HEK293 cells stably expressing hROMK (hKir1.1) were grown at 37° C. in a 10% CO2 humidified incubator in complete growth media: Dulbecco's Modified Eagle Medium supplemented with non-essential amino acids, Penicillin/Streptomycin/Glutamine, G418 and FBS. At >80% confluency, aspirate the media from the flask and rinse with 10 mL Calcium/Magnesium-free PBS. Add 5 mL of 1× trypsin (prepared in Ca/Mg Free PBS) to T-225 flask and return flask to 37° C./CO2 incubator for 2-3 minutes. To dislodge the cell, gently bang the side of the flask with your hand. Triturate the cells completely and then transfer the cells to 25 mL complete media. Centrifuge at 1,500 rpm for 6 min followed by resuspension in complete growth media and determine cell concentration. For typical re-seeding, 4E6 cells/T-225 flask will attain >80% confluency in 4 days. Under ideal growth conditions and appropriate tissue culture practices, this cell line is stable for 40-45 passages.
FluxOR Kit Components (Invitrogen F10017)
• FluxOR™ Reagent (Component A) • FluxOR™ Assay Buffer (Component B)—10× Concentrate • PowerLoad™ Concentrate (Component C)—100× Concentrate • Probenecid (Component D)—Lyophilized sample is kept at −20° C. Water soluble, 100×after solubilization in 1 mL water. Store at 4° C. • FluxOR™ Chloride-free Buffer (Component E)—5× Concentrate • Potassium sulfate (K2SO4) Concentrate (Component F)—125 mM in water. Store at 4° C. • Thallium sulfate (Tl2SO4) Concentrate (Component G)—50 mM in water. Store at 4° C. • DMSO (dimethyl sulfoxide, Component H)—1 mL (100%) Reagent Preparation: FluxOR Working Solutions • 1000× FluxOR™ Reagent: Reconstitute a vial of component A in 100 μl DMSO; Mix well; Store 10 μl aliquots at −20° C. • 1× FluxOR™ Assay Buffer: Dilute Component B 10-fold with water; Adjust pH to 7.4 with Hepes/NaOH; Filter and store at 4° C. • Probenecid/Assay Buffer: 100 mL of 1× FluxOR™ Assay Buffer; 1 mL of reconstituted component D; Store at 4° C. • Loading Buffer (per microplate): 10 μl 1000× FluxOR™ Reagent; 100 μl component C; 10 mL Probenecid/Assay Buffer • Compound Buffer (per microplate): 20 mL Probenecid/Assay Buffer; 0.3 mM ouabain (10 mM ouabain in water can be stored in amber bottle/aluminum foil at room temperature); Test compound • 1× FluxOR™ Chloride-Free Buffer: Prepare 1× working solution in water. Can be stored at room temperature • Stimulant Buffer (prepared at 5× final concentration in 1× FluxOR™ Chloride-Free Buffer): 7.5 mM Thallium sulfate and 0.75 mM Potassium sulfate (to give a final assay concentration of 3 mM Thallium 0.3 mM Potassium). Store at 4° C. when not in use. If kept sterile, this solution is good for months.
Assay Protocol—The ROMK channel functional thallium flux assay is performed in 384 wells, using the FLIPR-Tetra instrument. HEK-hKir1.1 cells are seeded in Poly-D-Lysine microplates and kept in a 37° C.-10% CO2 incubator overnight. On the day of the experiment, the growth media is replaced with the FluxOR™ reagent loading buffer and incubated, protected from light, at ambient temperature (23-25° C.) for 90 min. The loading buffer is replaced with assay buffer±test compound followed by 30 min incubation at ambient temperature, where the Thallium/Potassium stimulant is added to the microplate.
• 1. Seed HEK-hKir1.1 cells ([…] at 20,000 cells/well) in 384-well PDL coated Microplates • 2. Allow cells to adhere overnight in humidified 37° C./10% CO2 incubator • 3. Completely remove cell growth media from microplate and replace with 25 μl loading buffer • 4. Incubate Microplate at room temperature, protected form light, for 90 min • 5. Remove loading buffer and replace with 25 μl 1× Assay Buffer±test compound. • 6. Incubate microplate at room temperature, protected from light, for 30 min • 7. At FLIPR-Tetra 384: Add stimulant (Thallium/Potassium) solution to microplate and monitor fluorescence. Excitation=400 nm, Emission=460 & 580 nm. Collect data for 10 min.

Sequence of hROMK (hKir1.1) (P48048 whole entry): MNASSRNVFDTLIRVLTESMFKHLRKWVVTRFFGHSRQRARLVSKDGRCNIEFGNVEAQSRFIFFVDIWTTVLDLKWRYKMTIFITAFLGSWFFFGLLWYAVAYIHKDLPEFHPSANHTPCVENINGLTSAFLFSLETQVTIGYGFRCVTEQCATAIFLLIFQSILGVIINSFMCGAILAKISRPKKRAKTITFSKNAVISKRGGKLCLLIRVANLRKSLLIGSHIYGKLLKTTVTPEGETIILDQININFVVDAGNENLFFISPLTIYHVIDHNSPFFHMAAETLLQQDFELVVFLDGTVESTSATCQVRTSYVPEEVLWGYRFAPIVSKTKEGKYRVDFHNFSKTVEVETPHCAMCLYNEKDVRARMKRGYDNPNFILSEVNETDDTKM

SMILES	IC50 [nM]
CC1=C(N2CCC3(CCN(C[C@H](O)c4ccc5c(c4C)COC5=O)CC3F)C2=O)COC1=O (single isomer, unassigned) [Example 27]	210
CC1=C(N2CCC3(CCN(C[C@H](O)c4ccc5c(c4C)COC5=O)CC3F)C2=O)COC1=O (single isomer, unassigned) [Example 28]	190
CC1=C(N2C(=O)C3(CCN(C[C@H](O)c4ccc5c(c4C)COC5=O)CC3)CC2C)COC1=O (single isomer, unassigned) [Example 29]	70
Cc1c([C@@H](O)CN2C3CCC2CC2(CC(C)N(C4=CC(=O)OC4)C2=O)C3)ccc2c1COC2=O (single isomer, unassigned) [Example 40]	20
Cc1c([C@H](O)CN2C3CCC2CC2(CC(C)N(C4=CC(=O)OC4)C2=O)C3)ccc2c1COC2=O (single isomer, unassigned) [Example 42]	100
CCc1c(C(O)CN2CCC3(CC2)CCN(C2=C(C)C(=O)OC2)C3=O)ccc2c1COC2=O (single isomer, unassigned) [Example 74]	200
CC1=C(N2CCC3(CCN(CC(O)c4ccc5c(c4C4CC4)COC5=O)CC3)C2=O)COC1=O (single isomer, unassigned) [Example 77]	240
CC1=C(N2CCC3(CCN(CC(O)c4ccc5c(c4Cl)COC5=O)CC3)C2=O)COC1=O (single isomer, unassigned) [Example 78]	270
CC1=C(N2CCC3(CCN(CC(O)c4ccc5c(c4F)COC5=O)CC3)C2=O)COC1=O (single isomer, unassigned) [Example 81]	190
CC1=C(N2CCC3(CCN(C(CO)Cc4ccc5c(c4C)COC5=O)CC3)C2=O)COC1 (single isomer, unassigned) [Example 84A]	60
CC1=C(N2CCC3(CCN(C(CO)Cc4ccc5c(c4C)COC5=O)CC3)C2=O)COC1 (single isomer, unassigned) [Example 84B]	70
CC1=C(N2CCC3(CCN(C(C)(C)C(O)c4ccc5c(c4C)COC5=O)CC3)C2=O)COC1=O (single isomer, unassigned) [Example 85A]	120
CO[C@@H](CN1CCC2(CC1)C[C@H](C)N(C1=CC(=O)OC1)C2=O)c1ccc2c(c1C)COC2=O [Example 2]	50
Cc1c([C@@H](O)CN2CCC3(CC2)C[C@@H](C)N(C2=CC(=O)OC2)C3=O)ccc2c1COC2=O [Example 6A]	20
CC1=C(N2CCC3(CCN(C[C@H](O)c4ccc5c(c4C)COC5=O)CC3O)C2=O)COC1=O (stereo partly drawn) [Example 26]	230
Cc1c([C@@H](O)CN2C3CCC2CC2(CC(C)N(C4=CC(=O)OC4)C2=O)C3)ccc2c1COC2=O (stereo partly drawn) [Example 39]	20
Cc1c([C@H](O)CN2C3CCC2CC2(CC(C)N(C4=CC(=O)OC4)C2=O)C3)ccc2c1COC2=O (stereo partly drawn) [Example 41]	240
CC1=C(N2CCC3(CC4CN(C)CC(C3)N4C[C@H](O)c3ccc4c(c3C)COC4=O)C2=O)COC1=O (stereo partly drawn) [Example 45]	160
CC1=C(N2CCC3(CC4CN(C)CC(C3)N4C[C@@H](O)c3ccc4c(c3C)COC4=O)C2=O)COC1=O (stereo partly drawn) [Example 46]	140
CC1=C(N2CCC3(CCN(C[C@H](F)c4ccc5c(c4C)COC5=O)CC3)C2=O)COC1=O [Example 47, 8-[(2R)-2-fluoro-2-(4-methyl-1-oxo-1,3-dihydro-2-benzofuran-5-yl)ethyl]-2-(4-methyl-5-oxo-2,5-dihydrofuran-3-yl)-2,8-diazaspiro[4.5]decan-1-one]	40
CO[C@@H](CN1CCC2(CC1)CCN(C1=C(C)C(=O)OC1)C2=O)c1ccc2c(c1C)COC2=O [Example 49, 8-[(2R)-2-methoxy-2-(4-methyl-1-oxo-1,3-dihydro-2-benzofuran-5-yl)ethyl]-2-(4-methyl-5-oxo-2,5-dihydrofuran-3-yl)-1-oxo-2-aza-8-azoniaspiro[4.5]decane]	40
CC1=C(N2CCC3(CCN([C@@H](C)[C@H](O)c4ccc5c(c4C)COC5=O)CC3)C2=O)COC1=O [Example 53A]	10
CC1=C(N2CCC3(CCN(CC(NC4CC4)c4ccc5c(c4C)COC5=O)CC3)C2=O)COC1=O (stereo not drawn) [Example 54, 8-(2-(cyclopropylamino)-2-(4-methyl-1-oxo-1,3-dihydroisobenzofuran-5-yl)ethyl)-2-(4-methyl-5-oxo-2,5-dihydrofuran-3-yl)-2,8-diazaspiro[4.5]decan-1-one]	150
CC1=C(N2CCC3(CCN(CC(NCC(F)F)c4ccc5c(c4C)COC5=O)CC3)C2=O)COC1=O (stereo not drawn) [Example 55]	250

More lines, in order of falling IC50, values ahead:

IC50 [nM]	SMILES
40	Cc1c([C@@H](O)CN2CCC3(CC2)CCN(C2=C(C4CC4)C(=O)OC2)C3=O)ccc2c1COC2=O [Example 31]
40	Cc1c([C@@H](O)CN2CCC3(C=CN(C4=CC(=O)OC4)C3=O)CC2)ccc2c1COC2=O [Example 44]
30	Cc1c([C@@H](O)CN2CCC3(CC2)CC(C)N(C2=CC(=O)OC2)C3=O)ccc2c1COC2=O (stereo partly drawn) [Example 6, 8-((R)-2-Hydroxy-2-(4-methyl-1-oxo-1,3-dihydroisobenzofuran-5-yl)ethyl)-3-methyl-2-(5-oxo-2,5-dihydrofuran-3-yl)-2,8-diazaspiro[4.5]decan-1-one]
30	CC1=C(N2CCC3(CCN(C[C@@H](O)c4ccc5c(c4C)COC5=O)CC3)C2=O)COC1=O [Example 8, 8-[(2S)-2-hydroxy-2-(4-methyl-1-oxo-1,3-dihydro-2-benzofuran-5-yl)ethyl]-2-(4-methyl-5-oxo-2,5-dihydrofuran-3-yl)-2,8-diazaspiro[4.5]decan-1-one]
30	CC1=C(N2CC(=O)C3(CCN(C[C@H](O)c4ccc5c(c4C)COC5=O)CC3)C2=O)COC1=O [Example 36]
30	CC1=C(N2CCC3(CCN(C[C@@H](O)c4cc5c(cc4C)C(=O)OC5)CC3)C2=O)COC1=O [Example 37]
30	CCO[C@@H](CN1CCC2(CC1)CCN(C1=C(C)C(=O)OC1)C2=O)c1ccc2c(c1C)COC2=O [Example 50, 8-[(2R)-2-ethoxy-2-(4-methyl-1-oxo-1,3-dihydro-2-benzofuran-5-yl)ethyl]-2-(4-methyl-5-oxo-2,5-dihydrofuran-3-yl)-2,8-diazaspiro[4.5]decan-1-one]
20	CCC1CC2(CCN(C[C@H](O)c3ccc4c(c3C)COC4=O)CC2)C(=O)N1C1=CC(=O)OC1 (single isomer, unassigned) [Example 67]
20	CC1=C(N2CCC3(CCN(C[C@H](O)c4cc5c(cc4C)C(=O)OC5)CC3)C2=O)COC1=O [Example 38]
20	CC1=C(N2CCC3(CCN(C[C@@H](F)c4ccc5c(c4C)COC5=O)CC3)C2=O)COC1=O [Example 48, 8-[(2S)-2-fluoro-2-(4-methyl-1-oxo-1,3-dihydro-2-benzofuran-5-yl)ethyl]-2-(4-methyl-5-oxo-2,5-dihydrofuran-3-yl)-2,8-diazaspiro[4.5]decan-1-one]
10	CC1=C(N2CCC3(CCN(C(C)(C)C(O)c4ccc5c(c4C)COC5=O)CC3)C2=O)COC1=O (single isomer, unassigned) [Example 85B]
10	CC1=C(N2CCC3(CCN(CCc4ccc5c(c4C)COC5=O)CC3)C2=O)COC1=O [Example 1, 8-(2-(4-methyl-1-oxo-1,3-dihydroisobenzofuran-5-yl)ethyl)-2-(4-methyl-5-oxo-2,5-dihydrofuran-3-yl)-2,8-diazaspiro[4.5]decan-1-one]
